For test [1], the system named is PCSK9 protein. As to the kind of experiment: Influence of test compound on PCSK9 protein production amount in HepG2 cells (ELISA). The conditions noted are these: about 24 hours treatment, intracellular PCSK9 protein by ELISA, read-out: IC50 (50% PCSK9 production-suppressing concentration). The format is cell-based, human. As to the method: A test compound was added to culture supernatant of cells of the human liver cancer-derived cell strain, HepG2 cells, and intracellular amount of the PCSK9 protein was measured by the enzyme-linked immunosorbent assay (ELISA) after 24 hours. Specifically, the HepG2 cells were inoculated into wells of a 96-well microplate at a density of 5 to 7.5×10^4 cells/well, and the culture supernatant was exchanged with the MEM medium containing 10% lipoprotein deficient serum (LPDS) on the next day. After the cells were further cultured for one day, the culture supernatant was exchanged with the 10% LPDS-containing MEM medium containing a test compound, and the cells were treated with the compound for about 24 hours. The medium for treating the cells was prepared by dissolving the test compound in dimethyl sulfoxide (DMSO), and adding the resulting solution to the 10% LPDS-containing medium. The medium for treating cells for control was prepared by adding DMSO to the 10% LPDS-containing medium at the same final concentration. After completion of the treatment of the cells, a solubilization buffer (1% Nonidet P-40 in phosphate buffered saline) was added to the cells to extract proteins, and they were used as a sample.
The PCSK9 protein concentration and the total protein concentration in the sample were measured by using Human PCSK9 ELISA Kit produced by R&D Systems (Cat. No. DPC900), and BCA Protein Assay Reagent. Kit produced by Thermo Scientific (Cat. No. 23227) according to the protocols described in the attached manuals, respectively. The PCSK9 protein concentration in each sample was calculated as a concentration per unit mass of proteins. Then, by using PCSK9 production suppressing ratios at various concentrations obtained in accordance with the equation mentioned below, 50% PCSK9 production-suppressing concentration (IC50) of each compound was calculated with a linear regression equation.
Equation: PCSK9 production-suppressing ratio (%)=[(Average PCSK9 protein concentration in control group−Average PCSK9 protein concentration in test compound-treated group)/Average PCSK9 protein concentration in control group]×100
Background: ELISA stands for enzyme-linked immunosorbent assay.

In test [2] the test system is dietary hyperlipidemia hamsters. As to the kind of experiment: Efficacy test in dietary hyperlipidemia hamsters (LDL cholesterol decreasing ratio). The settings on record: oral once a day for seven days, high fat diet hamsters. The format is in vivo, Slc:Syrian male hamsters. As to the method: As test animals, the Slc:Syrian male hamsters were used. In order to create dietary hyperlipidemia models, the hamsters were fed ad libitum with a high fat diet (mixed diet of 0.5% cholesterol and 10% palm oil) for a period from two weeks before the start of the administration of the test compound to the end of the experiment. Blood was collected one day before the day of the start of the administration, and the total blood cholesterol concentration was measured by the direct method using an automatic analyzer. On the basis of this total blood cholesterol concentration, the animals were divided into groups. From the next day, the test compound was orally administered once a day for seven days, and the animals were dissected on the day following the day of the final administration. The LDL-cholesterol concentration in the collected blood was measured by the direct method using an automatic analyzer, and LDL cholesterol decreasing ratio was calculated in accordance with the following equation for each group.
Equation: LDL cholesterol decreasing ratio (%)=[(Average LDL-cholesterol concentration of control group−Average LDL-cholesterol concentration of test compound-administered group)/Average LDL-cholesterol concentration of control group]×100

With `COc1ccc2cc3[n+](cc2c1OC)CCc1cc2c(cc1-3)OCO2` [Berberine chloride, reference compound], in test [1], the IC50 was greater than 10000 nM.
On the same count and under the same terms, then `FC(F)(F)c1ccc(-c2nc3ccc(Cl)c(C(F)(F)F)c3o2)cc1` [Example 1, 6-Chloro-7-trifluoromethyl-2-(4-trifluoromethylphenyl)benzoxazole], with 0.802 nM; and `Fc1c(C(F)(F)F)ccc2nc(-c3ccc(C(F)(F)F)cc3)oc12` [Example 3, 7-Fluoro-6-trifluoromethyl-2-(4-trifluoromethylphenyl)benzoxazole], with 8.19 nM.
Turning to `FC(F)(F)c1ccc(-c2nc3c(Cl)c(C(F)(F)F)ccc3o2)cc1` [Example 4, 4-Chloro-5-trifluoromethyl-2-(4-trifluoromethylphenyl)benzoxazole], the IC50 in test [1] came out at 0.426 nM.
Turning to `FC(F)(F)c1ccc(-c2nc3ccc(I)c(Cl)c3o2)cc1` [Example 6, 7-Chloro-6-iodo-2-(4-trifluoromethylphenyl)benzoxazole], the “LDL cholesterol decreasing ratio (%)” value in test [2] (dose 5 mg/kg) was 41.8%. For the same compound, the IC50 in test [1] is 2.5 nM.
For `FC(F)(F)c1ccc(-c2nc3ccc(C(F)(F)F)c(Cl)c3o2)cc1` [Example 7, 7-Chloro-6-trifluoromethyl-2-(4-trifluoromethylphenyl)benzoxazole], the entries for the “LDL cholesterol decreasing ratio (%)” value in test [2] (dose 0.01 mg/kg) and in test [2] (dose 0.04 mg/kg) were 45.5% and 56.9%, respectively. Moreover, in test [1], the IC50 is 0.036 nM.
Consider `FC(F)(F)c1ccc(-c2nc3c(C(F)(F)F)ccc(Cl)c3o2)cc1` [Example 8, 7-Chloro-4-trifluoromethyl-2-(4-trifluoromethylphenyl)benzoxazole], for which the IC50 in test [1] was 0.153 nM.
On to `N#Cc1ccc2nc(-c3ccc(C(F)(F)F)cc3)oc2c1Cl` [Example 9, 7-Chloro-6-cyano-2-(4-trifluoromethylphenyl)benzoxazole], for which the IC50 in test [1] amounted to 0.0182 nM.
Still for that read-out and setting: as for `N#Cc1cc(Cl)c2nc(-c3ccc(C(F)(F)F)cc3)oc2c1` [Example 11, 4-Chloro-6-cyano-2-(4-trifluoromethylphenyl)benzoxazole], the figure is 1.34 nM.
Same read-out and setting: as for `Fc1c(Cl)cc2nc(-c3ccc(C(F)(F)F)cc3)oc2c1Cl` [Example 12, 5,7-Dichloro-6-fluoro-2-(4-trifluoromethylphenyl)benzoxazole], the figure is 2.94 nM; as for `FC(F)(F)c1ccc(-c2nc3ccc(C4CC4)c(C(F)(F)F)c3o2)cc1` [Example 14, 6-Cyclopropyl-7-trifluoromethyl-2-(4-trifluoromethylphenyl)benzoxazole], 4.54 nM.
Still for that read-out and setting: then `CC(=O)Nc1ccc2nc(-c3ccc(C(F)(F)F)cc3)oc2c1C(F)(F)F` [Example 16, 6-Acetamido-7-trifluoromethyl-2-(4-trifluoromethylphenyl)benzoxazole], with 2.08 nM.
As to `O=C(O)CCC(=O)Nc1ccc2nc(-c3ccc(C(F)(F)F)cc3)oc2c1C(F)(F)F` [Example 18, 6-(3-Carbonylpropanamido)-7-trifluoromethyl-2-(4-trifluoromethylphenyl)benzoxazole], in test [1], the IC50 amounted to 16.3 nM.
Consider `N#Cc1ccc2nc(-c3ccc(C(F)(F)F)cc3)oc2c1C(F)(F)F` [Example 19, 6-Cyano-7-trifluoromethyl-2-(4-trifluoromethylphenyl)benzoxazole], for which, in test [2] (dose 1 mg/kg), the “LDL cholesterol decreasing ratio (%)” value is 35.2%. In addition, the IC50 in test [1] worked out at 0.188 nM.
For the compound `FC(F)(F)c1ccc(-c2nc3ccc(NC4CC4)c(C(F)(F)F)c3o2)cc1` [Example 20, 6-(Cyclopropylamino)-7-trifluoromethyl-2-(4-trifluoromethylphenyl)benzoxazole], the IC50 in test [1] stood at 3.95 nM.
The same measure, in the same setting: then `OCCNc1ccc2nc(-c3ccc(C(F)(F)F)cc3)oc2c1C(F)(F)F` [Example 21, 6-(2-Hydroxyethylamino)-7-trifluoromethyl-2-(4-trifluoromethylphenyl)benzoxazole], with 5.85 nM; and `COc1cc(C#N)c(Cl)c2oc(-c3ccc(C(F)(F)F)cc3)nc12` [Example 22, 7-Chloro-6-cyano-4-methoxy-2-(4-trifluoromenthylphenyl)benzoxazole], with 99 nM.
The same measure, in the same setting: as for `CCc1nc2c(ccc3oc(-c4ccc(C(F)(F)F)cc4)nc32)o1` [Example 23, 2-Ethyl-7(4-trifluoromethylphenyl)benzo[2,1-d:3,4-d′]bisoxazole], the figure is 52.3 nM.
For the compound `FC(F)(F)c1ccc(-c2nc3ccc(C(F)(F)F)cc3o2)cc1` [Example 24, 6-(Trifluoromethyl)-2-[4-(trifluoromethyl)phenyl]benzoxazole], the “LDL cholesterol decreasing ratio (%)” value in test [2] (dose 1 mg/kg) turned out to be 32.6%. In test [1], the IC50 was found to be 21.4 nM.
On to `FC(F)(F)c1ccc(-c2nc3cccc(C(F)(F)F)c3o2)cc1` [Example 25, 7-(Trifluoromethyl)-2-[4-(trifluoromethyl)phenyl]benzoxazole], for which the IC50 in test [1] turned out to be 24.5 nM.
With `FC(F)(F)c1ccc(-c2nc3cc(Cl)c(C(F)(F)F)cc3o2)cc1` [Example 27, 5-Chloro-6-(trifluoromethyl)-2-[4-(trifluoromethyl)phenyl]benzoxazole], the IC50 in test [1] was 12.3 nM.
As for `FC(F)(F)c1ccc(-c2nc3cc(C(F)(F)F)cc(Cl)c3o2)cc1` [Example 28, 7-Chloro-5-(trifluoromethyl)-2-[4-(trifluoromethyl)phenyl]benzoxazole], the “LDL cholesterol decreasing ratio (%)” value in test [2] (dose 0.2 mg/kg) is reported as 63.6%. The IC50 in test [1] came out at 1.35 nM.
Consider `N#Cc1ccc2nc(-c3ccc(C(F)(F)F)cc3)oc2c1` [Example 29, 6-Cyano-2-[4-(trifluoromethyl)phenyl]benzoxazole], for which the IC50 in test [1] amounted to 27 nM.
On the same count and under the same terms, then `FC(F)(F)c1ccc(-c2nc3c(ccc4cc[nH]c43)o2)cc1` [Example 31, 2-(4-Trifluoromethylphenyl)-8H-pyrrolo[2,3-e]benzoxazole], with 29.7 nM.
Same read-out and setting: as for `Nc1ccc(Br)c2oc(-c3ccc(C(F)(F)F)cc3)nc12` [Example 33, 4-Amino-7-bromo-2-(4-trifluoromethylphenyl)benzoxazole], the figure is 4.96 nM; as for `Nc1c(Cl)cc(Cl)c2oc(-c3ccc(C(F)(F)F)cc3)nc12` [Example 34, 4-Amino-5,7-dichloro-2-(4-trifluoromethylphenyl)benzoxazole], 20.2 nM.
Still for that read-out and setting: then `N#Cc1cc(Cl)c2oc(-c3ccc(C(F)(F)F)cc3)nc2c1N` [Example 36, 4-Amino-7-chloro-5-cyano-2-(4-trifluoromethylphenyl)benzoxazole], with 5.17 nM; and `N#Cc1ccc(N)c2nc(-c3ccc(C(F)(F)F)cc3)oc12` [Example 38], with 27.3 nM; and `CN(C)c1nc2c(ccc3oc(-c4ccc(C(F)(F)F)cc4)nc32)s1` [Example 40, 7-Dimethylamino-2-(4-trifluoromethylphenyl)thiazolo[4,5-e]benzoxazole], with 3.97 nM.
As to `NCc1cccc2oc(-c3ccc(C(F)(F)F)cc3)nc12` [Example 41, 4-Aminomethyl-2-(4-trifluoromethylphenyl)benzoxazole], in test [1], the IC50 was found to be 19.2 nM.
On the same count and under the same terms, as for `[O-][n+]1ccc2c(ccc3oc(-c4ccc(C(F)(F)F)cc4)nc32)c1` [Example 43, 2-[4-(Trifluoromethyl)phenyl]oxazolo[4,5-f]isoquinoline 7-oxide], the figure is 25.6 nM; as for `Clc1ccc2nc(-c3nc4c(Cl)cccc4o3)sc2c1` [Example 44, 4-Chloro-2-(6-chloro-benzothiazol-2-yl)benzoxazole], 13.9 nM.
Same read-out and setting: then `Nc1c(-c2ccc(C(F)(F)F)cc2)[nH]c2c(Cl)c(Cl)ccc12` [Example 45, 3-Amino-6,7-dichloro-2-(4-trifluoromethylphenyl)indole], with 2.68 nM; and `CCN(CC)c1nc2c(ccc3cc(-c4ccc(C(F)(F)F)cc4)[nH]c32)o1` [Example 47, 2-Diethylamino-7-(4-trifluoromenthylphenyl)-8H-pyrrolo[2,3-e]benzoxazole], with 45.4 nM.
With `CC(C)OC(=O)C(C)(C)Oc1ccc(C(=O)c2ccc(Cl)cc2)cc1` [Phenofibrate, reference compound], in test [2] (dose 50 mg/kg), the “LDL cholesterol decreasing ratio (%)” value was found to be 25.7%.
